We go through 18 molecules from patent US20240279233A1, “MACROCYCLIC TAK1 INHIBITORS” (Aqilion AB, priority 2021, published 2024).

For data set [1], the target named is human recombinant TAK1-TAB1 Kinase (TAK1 (1-303) and TAB1 (437-end)) (Homo sapiens (Human), UniProt O43318). Briefly: TAK1 biochemical ADP-Glo kinase assay. The note with it: 10 μM ATP, MBP substrate; read-out: TAK1 Mean IC50 (nM) @ 10 μM ATP. The gist of the method: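 Inhibition of human recombinant TAK1-TAB1 kinase was measured with a Promega ADP-Glo luminescence assay in 384-well plates. Compounds in 5% DMSO were pre-incubated 10 min with 2 μl TAK1-TAB1 (7.5 ng/μl) in buffer of Tris pH 7.5, MgCl2, DTT and BSA. MBP substrate and ATP were then added for 1 hour at room temperature. ADP-Glo reagent and kinase detection substrate followed, luminescence was read on an Envision, and IC50 came from non-linear regression.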
Chain of human recombinant TAK1-TAB1 Kinase (TAK1 (1-303) and TAB1 (437-end)) (O43318 other isoform, or with tags, fused parts or gaps): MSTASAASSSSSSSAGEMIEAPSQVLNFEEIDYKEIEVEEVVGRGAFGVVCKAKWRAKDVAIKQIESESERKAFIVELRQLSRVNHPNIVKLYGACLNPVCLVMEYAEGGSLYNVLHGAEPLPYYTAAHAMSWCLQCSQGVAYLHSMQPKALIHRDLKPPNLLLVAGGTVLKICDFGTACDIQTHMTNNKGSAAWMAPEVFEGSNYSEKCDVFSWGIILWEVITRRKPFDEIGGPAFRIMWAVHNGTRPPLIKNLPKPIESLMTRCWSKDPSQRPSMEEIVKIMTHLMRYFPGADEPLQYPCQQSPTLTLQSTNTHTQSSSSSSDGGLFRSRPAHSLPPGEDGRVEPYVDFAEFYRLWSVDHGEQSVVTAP
In general terms: ADP-Glo turns the ADP formed in a reaction into a luminescent signal.

Data set [2] can be described thus: Solubility assay in phosphate buffer. The note with it: phosphate buffer, pH 7.4, aqueous buffer, kinetic from dmso stock, Solubility (μM), phosphate buffer 100 mM, pH 7.4, room temperature, 20-24 h, LC-UV.
Procedure: The aqueous solubility of selected example compounds was determined as follows; 6 μL of DMSO stock solution of the selected example was added to 594 μL phosphate buffer (100 mM, pH 7.4). The resulting mixture was equilibrated over night (20-24 h, Alligator Shaker, room temperature). The mixture was then filtered (Millex LH 0.45 μm) and the concentration/solubility was determined by LC-UV quantification.

In general, IC50 refers to the concentration that inhibits the measured activity by half. What is called solubility is the dissolved amount per volume that the medium holds. Higher therefore signals a readily soluble substance.

Each structure is given as a SMILES string. Values after ≈ are worked out from the molar mass of the structure shown.

For `CC1CCCCNC(=O)c2cccc(c2)C(=O)/N=C2\Nc3cccc(-c4nccn4C)c3N21` (single isomer, unassigned) [Example 136, (E)-11-methyl-1^7-(1-methyl-1H-imidazol-2-yl)-1^2,1^3-dihydro-1^1H-2,6-diaza-1(2,1)-benzo[d]imidazola-4(1,3)-benzenacycloundecaphane-3,5-dione], the IC50 in data set [1] is 4 nM. Also, in data set [2], the solubility is 11 µM (≈ 4.87 µg/mL).
For `O=C1NCCCCCCn2c(nc3ccccc32)NC(=O)c2cccc1c2` [Example 1, 1^1H-2,6-diaza-1(2,1)-benzo[d]imidazola-4(1,3)-benzenacyclododecaphane-3,5-dione] the same measures were 27 nM and 1.2 µM (≈ 0.435 µg/mL).
As for `CC1CCCCNC(=O)c2cccc(c2)C(=O)Nc2nc3cccc(C(=O)N4CCN(C)CC4)c3n21` (stereo not drawn) [Example 8, 11-methyl-1^7-(4-methylpiperazine-1-carbonyl)-1^1H-2,6-diaza-1(2,1)-benzo[d]imidazola-4(1,3)-benzenacycloundecaphane-3,5-dione], the IC50 in data set [1] is 5 nM. The solubility in data set [2] was determined as 92.7 µM (≈ 45.3 µg/mL).
The corresponding values for `CN1CCN(C(=O)c2cccc3nc4n(c23)CCCCCNC(=O)c2cccc(c2)C(=O)N4)CC1` [Example 10, 1^7-(4-methylpiperazine-1-carbonyl)-1^1H-2,6-diaza-1(2,1)-benzo[d]imidazola-4(1,3)-benzenacycloundecaphane-3,5-dione] are 11 nM and 28 µM (≈ 13.3 µg/mL).
Turning to `CN1CCN(C(=O)c2ccc3c(c2)nc2n3CCCCCNC(=O)c3cccc(c3)C(=O)N2)CC1` [Example 11, 1^5-(4-methylpiperazine-1-carbonyl)-1^1H-2,6-diaza-1(2,1)-benzo[d]imidazola-4(1,3)-benzenacycloundecaphane-3,5-dione], in data set [1], the half-inhibitory concentration (IC50) stood at 1 nM. Besides, the solubility in data set [2] worked out at 4.8 µM (≈ 2.28 µg/mL).
Take `O=C1NCCCCCn2c(nc3cc(C(=O)N4CCN(C5COC5)CC4)ccc32)NC(=O)c2cccc1c2` [Example 12, 1^5-(4-(oxetan-3-yl)piperazine-1-carbonyl)-1^1H-2,6-diaza-1(2,1)-benzo[d]imidazola-4(1,3)-benzenacycloundecaphane-3,5-dione]: the IC50 in data set [1] stood at 1 nM. The molecule further had a solubility in data set [2] of 31.1 µM (≈ 16.1 µg/mL).
For `CC(C)(C)OC(=O)N1CCN(C(=O)c2ccc3c(c2)nc2n3CCCCCNC(=O)c3cccc(c3)C(=O)N2)CC1` [Example 13, tert-butyl 4-(3,5-dioxo-1^1H-2,6-diaza-1(2,1)-benzo[d]imidazola-4(1,3)-benzenacycloundecaphane-1^5-carbonyl)piperazine-1-carboxylate], in data set [1], the IC50 worked out at 1 nM. For the same molecule, the solubility in data set [2] was determined as 0.2 µM (≈ 0.112 µg/mL).
For the molecule `CC(C)(C)OC(=O)N1CCN(C(=O)c2cccc3nc4n(c23)CCCCCNC(=O)c2cccc(c2)C(=O)N4)CC1` [Example 14, tert-butyl 4-(3,5-dioxo-1^1H-2,6-diaza-1(2,1)-benzo[d]imidazola-4(1,3)-benzenacycloundecaphane-1^7-carbonyl)piperazine-1-carboxylate], the IC50 in data set [1] was 11 nM. Further, the solubility in data set [2] was determined as 0.3 µM (≈ 0.168 µg/mL).
`CC1CCCCNC(=O)c2cccc(c2)C(=O)Nc2nc3cccc(C(=O)N4CCNCC4)c3n21` (stereo not drawn) [Example 15, 11-methyl-1^7-(piperazine-1-carbonyl)-1^1H-2,6-diaza-1(2,1)-benzo[d]imidazola-4(1,3)-benzenacycloundecaphane-3,5-dione]: the IC50 in data set [1] amounted to 5 nM. The molecule further showed a solubility in data set [2] of 90.1 µM (≈ 42.8 µg/mL).
For `O=C1NCCCCCn2c(nc3cc(C(=O)N4CCNCC4)ccc32)NC(=O)c2cccc1c2` [Example 16, 1^5-(piperazine-1-carbonyl)-1^1H-2,6-diaza-1(2,1)-benzo[d]imidazola-4(1,3)-benzenacycloundecaphane-3,5-dione], in data set [1], the IC50 worked out at 3 nM. In addition, the solubility in data set [2] was determined as 78.8 µM (≈ 36.3 µg/mL).
Regarding `O=C1NCCCCCn2c(nc3cccc(C(=O)N4CCNCC4)c32)NC(=O)c2cccc1c2` [Example 17, 1^7-(piperazine-1-carbonyl)-1^1H-2,6-diaza-1(2,1)-benzo[d]imidazola-4(1,3)-benzenacycloundecaphane-3,5-dione], the IC50 in data set [1] worked out at 4 nM. Also, the solubility in data set [2] turned out to be 93.6 µM (≈ 43.1 µg/mL).
For `O=C1/N=C2\Nc3cccc(C(=O)N4CCN(C5COC5)CC4)c3N2CCCCCNC(=O)c2cccc1c2` [Example 19, (E)-1^7-(4-(oxetan-3-yl)piperazine-1-carbonyl)-1^2,1^3-dihydro-1^1H-2,6-diaza-1(2,1)-benzo[d]imidazola-4(1,3)-benzenacycloundecaphane-3,5-dione] the same measures were 7 nM and 8.5 µM (≈ 4.39 µg/mL).
On to `C[C@@H]1CN(C)CCN1C(=O)c1cccc2c1N1CCCCCNC(=O)c3cccc(c3)C(=O)/N=C/1N2` [Example 20, (R,E)-1^7-(2,4-dimethylpiperazine-1-carbonyl)-1^2,1^3-dihydro-1^1H-2,6-diaza-1(2,1)-benzo[d]imidazola-4(1,3)-benzenacycloundecaphane-3,5-dione], for which the IC50 in data set [1] turned out to be 19 nM. The molecule further displayed a solubility in data set [2] of 35 µM (≈ 17.1 µg/mL).
Consider `CN(C)[C@H]1CCN(C(=O)c2cccc3c2N2CCCCCNC(=O)c4cccc(c4)C(=O)/N=C/2N3)C1` [Example 21, (S,E)-1^7-(3-(dimethylamino)pyrrolidine-1-carbonyl)-1^2,1^3-dihydro-1^1H-2,6-diaza-1(2,1)-benzo[d]imidazola-4(1,3)-benzenacycloundecaphane-3,5-dione], for which the half-inhibitory concentration (IC50) in data set [1] was 7 nM. The solubility in data set [2] is 85.1 µM (≈ 41.6 µg/mL).
Consider `CN1C[C@@H]2C[C@H]1CN2C(=O)c1cccc2c1N1CCCCCNC(=O)c3cccc(c3)C(=O)/N=C/1N2` [Example 22, (E)-1^7-((1S,4S)-5-methyl-2,5-diazabicyclo[2.2.1]heptane-2-carbonyl)-1^2,1^3-dihydro-1^1H-2,6-diaza-1(2,1)-benzo[d]imidazola-4(1,3)-benzenacycloundecaphane-3,5-dione], for which the IC50 in data set [1] was 9 nM. The molecule further returned a solubility in data set [2] of 88.5 µM (≈ 43.1 µg/mL).
`CN(C)[C@@H]1CCN(C(=O)c2cccc3c2N2CCCCCNC(=O)c4cccc(c4)C(=O)/N=C/2N3)C1` [Example 23, (R,E)-1^7-(3-(dimethylamino)pyrrolidine-1-carbonyl)-1^2,1^3-dihydro-1^1H-2,6-diaza-1(2,1)-benzo[d]imidazola-4(1,3)-benzenacycloundecaphane-3,5-dione]: the IC50 in data set [1] was found to be 8 nM. The solubility in data set [2] was found to be 83.3 µM (≈ 40.7 µg/mL).
Consider `C[C@H]1CN(C)CCN1C(=O)c1cccc2c1N1CCCCCNC(=O)c3cccc(c3)C(=O)/N=C/1N2` [Example 24, (S,E)-1^7-(2,4-dimethylpiperazine-1-carbonyl)-1^2,1^3-dihydro-1^1H-2,6-diaza-1(2,1)-benzo[d]imidazola-4(1,3)-benzenacycloundecaphane-3,5-dione], for which the IC50 in data set [1] amounted to 4 nM. In data set [2], this molecule yielded a solubility of 26.2 µM (≈ 12.8 µg/mL).
For `CN1C[C@H]2C[C@@H]1CN2C(=O)c1cccc2c1N1CCCCCNC(=O)c3cccc(c3)C(=O)/N=C/1N2` [Example 25, (E)-1^7-((1R,4R)-5-methyl-2,5-diazabicyclo[2.2.1]heptane-2-carbonyl)-1^2,1^3-dihydro-1^1H-2,6-diaza-1(2,1)-benzo[d]imidazola-4(1,3)-benzenacycloundecaphane-3,5-dione] the same measures were 2 nM and 82 µM (≈ 39.9 µg/mL).
